# How the values were obtained:
# H128 SCLC cells = assay: In vitro cell viability (Cell Titer Glo), 8 hours of compound treatment; type: cell-based; conditions: Homo sapiens, read-out: % Viability Remaining (8 hr), mean
# Protocol: (§1) All cell lines were grown in exponential growth phase.
# H146 SCLC cells = assay: as above; type: cell-based; conditions: Homo sapiens, read-out: % Viability Remaining (8 hr), mean
# Protocol: as §1
# H82 SCLC cells = assay: as above; type: cell-based; conditions: Homo sapiens, read-out: % Viability Remaining (8 hr), mean
# Protocol: as §1
# Su-DHL-4 DLBCL cells = assay: as above; type: cell-based; conditions: Homo sapiens, read-out: % Viability Remaining (8 hr), mean
# Protocol: as §1
# Su-DHL-8 DLBCL cells = assay: as above; type: cell-based; conditions: Homo sapiens, read-out: % Viability Remaining (8 hr), mean
# Protocol: as §1
# [1] = system: NCI-H82 human Small Cell Lung Cancer (SCLC) xenograft; assay: NCI-H82 human Small Cell Lung Cancer xenograft model; type: in vivo, mouse; conditions: dinaciclib 40 mg/kg ip q4d, ABT-199 100 mg/kg po qd
# Protocol: (§2) The cells were cultured in tissue culture flasks in a humidified incubator at 37° C., in an atmosphere of 5% CO2 and 95% air.
# (§3) Body weight was measured at least twice weekly.
# [2] = system: SUDHL4 human Diffuse Large B-Cell Lymphoma (DLBCL) xenograft; type: in vivo; conditions: dinaciclib 40 mg/kg ip q4d, ABT-199 100 mg/kg po qd, dosing for eleven days, combination measured on day 18
# Protocol: as §2, §3
# [3] = system: TOLEDO human Diffuse Large B-Cell Lymphoma (DLBCL) xenograft; assay: Toledo human DLBCL xenograft model; conditions: dinaciclib 40 mg/kg ip q4d, ABT-199 100 mg/kg po qd, alone or combined
# Protocol: Eight week old female SCID beige mice (Fox Chase SCID® Beige) with body weights ranging from 18.0 to 22 grams were used for this study. Toledo tumor cells were grown to mid-log phase in RPMI-1640 medium containing 10% fetal bovine serum, 100 units/mL penicillin G, 100 μg/mL streptomycin sulfate, and 10 mM sodium pyruvate. The cells were cultured in tissue culture flasks in a humidified incubator at 37° C., in an atmosphere of 5% CO2 and 95% air. Mice were implanted subcutaneously in the right flank with 5×10e^6 tumor cells in 50% matrigel in a total volume of 0.1 ml. Twenty-eight days after inoculation, mice were randomized into groups when tumors reached an average tumor volume of ˜160 mm^3.
# Dinaciclib, formulated in 20% hydroxypropyl beta-cyclodextrin (HPBCD), was dosed at 40 mg/kg intraperitoneal (ip) every four days (q4d). […] Both test agents were administered at 10 ml/kg.
# Tumor volume (TV) was measured twice a week using calipers. Tumor volume was calculated by the elliptical formula: Tumor Volume=width2×length/2. Body weight was measured at least twice weekly. […] Statistical Analysis of Tumor Growth Inhibition (TGI) was analyzed by one-way ANOVA followed by Tukey's multiple comparison test.
structure (smiles),measurement,setting,value
"CC1(C)CCC(CN2CCN(c3ccc(C(=O)NS(=O)(=O)c4ccc(NCC5CCOCC5)c([N+](=O)[O-])c4)c(Oc4cnc5[nH]ccc5c4)c3)CC2)=C(c2ccc(Cl)cc2)C1 [ABT-199, 4-(4-{[2-(4-chlorophenyl)-4,4-dimethylcyclohex-1-en-1-yl]methyl}piperazin-1-yl)-N-({3-nitro-4-[(tetrahydro-2H-pyran-4-ylmethyl)amino]phenyl}sulfonyl)-2-(1H-pyrrolo[2,3-b]pyridin-5-yloxy)benzamide]",viability at 1 µM,"H128 SCLC cells; NCI-H128, 8 h",95.4%
same,viability at 1 µM,"H146 SCLC cells; NCI-H146, 8 h",92.6%
same,viability at 1 µM,H82 SCLC cells; 8 h,111%
same,viability at 1 µM,"Su-DHL-4 DLBCL cells; SU-DHL-4, 8 h",85.4%
same,viability at 1 µM,"Su-DHL-8 DLBCL cells; SU-DHL-8, 8 h",99.4%
same,Effect on tumor growth (single agents),[1],no effect on tumor growth
same,Anti-tumor effect (tumor volume),[2],single agent activity
same,Anti-tumor effect (tumor volume),[3],provided anti-tumor effects
"CCc1cnn2c(NCc3ccc[n+]([O-])c3)cc(N3CCCC[C@H]3CCO)nc12 [dinaciclib, (S)-(−)-2-(1-{3-ethyl-7-[(1-oxy-pyridin-3-ylmethyl)amino]pyrazolo[1,5-a]pyrimidin-5-yl}piperidin-2-yl)ethanol]",viability at 0.1 µM,"H128 SCLC cells; NCI-H128, H128 SCLC, dinaciclib 0.1 uM, 8 hr",114%
same,viability at 0.1 µM,"H146 SCLC cells; NCI-H146, H146 SCLC, dinaciclib 0.1 uM, 8 hr",118%
same,viability at 0.1 µM,"H82 SCLC cells; H82 SCLC, dinaciclib 0.1 uM, 8 hr",64.7%
same,viability at 0.1 µM,"Su-DHL-4 DLBCL cells; Su-DHL-4 DLBCL, dinaciclib 0.1 uM, 8 hr",53.5%
same,viability at 0.1 µM,"Su-DHL-8 DLBCL cells; Su-DHL-8 DLBCL, dinaciclib 0.1 uM, 8 hr",126%

# — US9925192B2, “Method for treating cancer” (Merck Sharp & Dohme Corp., priority 2014, dated 2018)
